The structures appear in SMILES notation.

Twelve compounds from patent publication US12281119B2, “Imidazo[2,1-f][1,2,4]triazin-4-amine derivatives as TLR7 agonist” (BEIGENE, LTD., priority 2019, dated 2025) can be followed below.

Assay type in all cases: cell-based
The target in experiment [1] is T1, human TLR 8 protein (Homo sapiens, UniProt Q9NR97).
T1 construct: expressed in transfected cells; host or cells: HEK293 (HEK-Blue hTLR8)
T1 sequence (Q9NR97 27-1041): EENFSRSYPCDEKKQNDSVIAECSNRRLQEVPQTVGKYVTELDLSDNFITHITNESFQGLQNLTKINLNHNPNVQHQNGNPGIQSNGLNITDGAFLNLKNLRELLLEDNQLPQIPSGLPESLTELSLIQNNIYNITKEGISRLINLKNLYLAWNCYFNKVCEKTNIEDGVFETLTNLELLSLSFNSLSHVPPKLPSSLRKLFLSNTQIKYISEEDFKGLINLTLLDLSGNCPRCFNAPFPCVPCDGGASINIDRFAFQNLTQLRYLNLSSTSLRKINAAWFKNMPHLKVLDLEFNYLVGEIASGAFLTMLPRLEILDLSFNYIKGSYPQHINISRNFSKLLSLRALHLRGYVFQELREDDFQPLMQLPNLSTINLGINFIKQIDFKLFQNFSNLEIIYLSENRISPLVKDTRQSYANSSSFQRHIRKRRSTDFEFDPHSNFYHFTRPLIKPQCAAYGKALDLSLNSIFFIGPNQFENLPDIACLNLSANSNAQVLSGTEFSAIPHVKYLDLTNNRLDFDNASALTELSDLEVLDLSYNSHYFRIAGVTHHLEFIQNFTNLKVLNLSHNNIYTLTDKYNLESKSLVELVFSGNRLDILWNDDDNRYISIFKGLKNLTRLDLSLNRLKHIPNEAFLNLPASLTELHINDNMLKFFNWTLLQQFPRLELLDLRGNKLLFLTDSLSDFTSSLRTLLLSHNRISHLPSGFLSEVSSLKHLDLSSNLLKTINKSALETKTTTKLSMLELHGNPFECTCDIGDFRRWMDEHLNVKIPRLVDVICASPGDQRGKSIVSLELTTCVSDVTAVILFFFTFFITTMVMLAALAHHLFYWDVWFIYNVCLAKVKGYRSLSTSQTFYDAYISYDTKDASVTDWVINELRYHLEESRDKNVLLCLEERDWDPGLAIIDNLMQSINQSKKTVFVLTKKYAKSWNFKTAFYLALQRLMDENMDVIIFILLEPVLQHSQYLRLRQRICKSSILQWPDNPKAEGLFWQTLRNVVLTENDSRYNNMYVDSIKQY
The experiment is described as follows: TLR8 stimulation determined using HEK-Blue Detection. Particulars: HEK-Blue hTLR8 cells, 16 hr, relative to Resiquimod or Motolimod maximum. An excerpt:
TLR8 Stimulation Determined Using HEK-Blue Detection
This assay was designed for studying the stimulation of human TLR 8 protein in HEK-Blue hTLR8 tool cell line by monitoring the activation of NF-1B. HEK-Blue hTLR8 cells were obtained by co-transfection of the hTLR8 gene and an optimized secreted embryonic alkaline phosphatase (SEAP) reporter gene into HEK293 cells. The SEAP reporter gene was placed under the control of the IFN-β minimal promoter fused to five NF-κB and AP-1-binding sites. Stimulation with a TLR 8 ligand activates NF-κB and AP-1 which induce the expression of SEAP. Levels of SEAP can be easily determined with HEK-Blue Detection, a cell culture medium that allows for real-time detection of SEAP. HEK-Blue Detection contains all the nutrients necessary for cell growth and a specific SEAP color substrate. The hydrolysis of the substrate by SEAP produces a purple/blue color that can be measured with a spectrophotometer.
When growing to 50-80% confluency, HEK-Blue hTLR7/8 cells were plated into 96-well plate (costar 3599) at a density of 40000 cells/well. Then compounds were added with serial dilutions over 10 points with a 1 nM-10 uM final concentration range in 0.1% DMSO/HEK-Blue Detection. The plates were then incubated for 16 hr at 37° C. in 5% CO2. The optical density at 620-655 nm was read on BMG PHERAstar FSX instrument. The EC50 for each compound was determined by calculating the percentages of the maximum activation identified with Resiquimod or Motolimod.

For experiment [2], the target named is T2, human TLR7 (Homo sapiens, UniProt Q9NYK1).
T2 sequence (Q9NYK1 27-1049): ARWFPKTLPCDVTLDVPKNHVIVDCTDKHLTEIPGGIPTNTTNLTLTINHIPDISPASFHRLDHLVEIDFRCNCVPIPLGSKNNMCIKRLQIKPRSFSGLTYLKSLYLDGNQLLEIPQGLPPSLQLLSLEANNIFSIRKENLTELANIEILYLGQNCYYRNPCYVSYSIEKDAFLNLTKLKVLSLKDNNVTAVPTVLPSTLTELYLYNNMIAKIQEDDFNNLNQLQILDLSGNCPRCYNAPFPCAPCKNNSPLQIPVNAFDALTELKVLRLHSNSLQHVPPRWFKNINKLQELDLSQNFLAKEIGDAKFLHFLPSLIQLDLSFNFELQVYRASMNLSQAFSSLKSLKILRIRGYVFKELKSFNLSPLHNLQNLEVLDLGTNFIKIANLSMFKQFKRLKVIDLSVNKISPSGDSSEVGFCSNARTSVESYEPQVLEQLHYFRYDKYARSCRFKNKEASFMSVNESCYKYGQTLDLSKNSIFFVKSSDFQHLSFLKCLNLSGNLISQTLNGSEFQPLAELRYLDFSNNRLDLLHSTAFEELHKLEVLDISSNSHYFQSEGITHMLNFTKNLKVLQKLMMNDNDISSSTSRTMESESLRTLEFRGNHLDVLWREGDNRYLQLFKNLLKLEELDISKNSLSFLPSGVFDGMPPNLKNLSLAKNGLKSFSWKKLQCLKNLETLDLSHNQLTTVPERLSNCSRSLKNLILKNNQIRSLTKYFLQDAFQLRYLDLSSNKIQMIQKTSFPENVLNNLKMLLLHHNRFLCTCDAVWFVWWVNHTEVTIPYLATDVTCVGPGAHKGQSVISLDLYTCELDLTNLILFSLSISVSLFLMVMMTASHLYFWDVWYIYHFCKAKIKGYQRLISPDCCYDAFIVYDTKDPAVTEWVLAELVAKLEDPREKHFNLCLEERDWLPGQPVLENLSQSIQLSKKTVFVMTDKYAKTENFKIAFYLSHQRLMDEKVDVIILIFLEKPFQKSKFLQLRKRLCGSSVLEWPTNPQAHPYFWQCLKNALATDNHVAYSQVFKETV
Description: TLR7 stimulation determined using HEK-Blue Detection. On the set-up: expressed in transfected cells; host or cells: HEK293 (HEK-Blue hTLR7). The conditions noted are these: HEK-Blue hTLR7 cells, HEK-Blue Detection (A77-A124), 16 hr, relative to Resiquimod maximum. From the text: TLR7 Stimulation Determined Using HEK-Blue Detection
This assay was designed for studying the stimulation of human TLR7 protein in HELK-Blue hTLR7 tool cell line by monitoring the activation of NF-κB. HEK-Blue hTLR7 cells were obtained by co-transfection of the hTLR7 gene and an optimized secreted embryonic alkaline phosphatase (SLAP) reporter gene into HEK293 cells. The SLAP reporter gene was placed under the control of the IFN-β minimal promoter fused to five NF-κB and AP-1-binding sites. Stimulation with a TLR7 ligand activates NF-κB and AP-1 which induce the expression of SLAP. Levels of SLAP can be easily determined with HEK-Blue Detection, a cell culture medium that allows for real-time detection of SLAP. HLK-Blue Detection contains all the nutrients necessary for cell growth and a specific SLAP color substrate. The hydrolysis of the substrate by SLAP produces a purple/blue color that can be measured with a spectrophotometer.
When growing to 50-80%0 confluency, HLK-Blue hTLR7 cells were plated into 96-well plate (costar 3599) at a density of 40000 cells/well. Then compounds were added with serial dilutions over 10 points with a 0.04 nM-10 μM final concentration range in 0.1% DMSO/BLK-Blue Detection. The plates were then incubated for 16 hr at 37° C. in […] and vortex for 30s before measurement. The optical density at 620-655 nm was read on BMG PHLRAstar FSX instrument. The EC50 for each compound was determined by calculating the percentages of the maximum activation identified with Resiquimod.

The target of experiment [3] is T2, human TLR7. Description: HEK293-Blue hTLR7 reporter assay (QUANTI-BLUE, SEAP readout). On the set-up: host or cells: HEK293 (HEK-Blue-hTLR7). The conditions noted are these: HEK-Blue-hTLR7 cells, QUANTI-BLUE assay (A1-A76), 24 hrs. Put shortly:
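Cells seeded at 4×10^4 per well in DMEM/10% heat-inactivated FBS, settled 5 h, then exposed to increasing compound amounts for 24 h at 37° C. Secreted SEAP in supernatant read with Quanti-blue at 620-655 nm after 10-30 min at 37° C.; EC50 from sigmoidal dose-response fit.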
Background: Reporter assays use an easily measured gene product as a stand-in for the process of interest.

For the compound `CCCC(CCO)Oc1nc(N)c2ncc(Cc3ccc(OCCNC)nc3)n2n1` (single isomer, unassigned) [Compound A81, (R or S) 3-((4-amino-7-((6-(2-(methylamino)ethoxy)pyridin-3-yl)methyl)imidazo[2,1-f][1,2,4]triazin-2-yl)oxy)hexan-1-ol], the EC50 (usually the concentration that produces a half-maximal response) was found to be 6250 nM in experiment [1] and 310 nM in experiment [2].
As to `CCCC(CCO)Oc1nc(N)c2ncc(Cc3ccc(OCCNC)nc3)n2n1` (single isomer, unassigned) [Compound A82, (S or R) 3-((4-amino-7-((6-(2-(methylamino)ethoxy)pyridin-3-yl)methyl)imidazo[2,1-f][1,2,4]triazin-2-yl)oxy)hexan-1-ol], the EC50 is 22 nM in experiment [1] and 5 nM in experiment [2].
Taken in the same sequence, the figures for `CCCC(CCO)Oc1nc(N)c2ncc(Cc3ccc(OCCNC)cc3)n2n1` (single isomer, unassigned) [Compound A92, (R or S) 3-((4-amino-7-(4-(2-(methylamino)ethoxy)benzyl)imidazo[2,1-f][1,2,4]triazin-2-yl)oxy)hexan-1-ol] were 872 nM and 122 nM.
In the case of `CCCC(CCO)Oc1nc(N)c2ncc(Cc3ccc(OCCNC)cc3)n2n1` (single isomer, unassigned) [Compound A93, (S or R) 3-((4-amino-7-(4-(2-(methylamino)ethoxy)benzyl)imidazo[2,1-f][1,2,4]triazin-2-yl)oxy)hexan-1-ol], the EC50 came out at 13.5 nM in experiment [1] and 1.7 nM in experiment [2].
As for `CCCC(CCO)Oc1nc(N)c2ncc(Cc3ccc(OCCNC)cc3OC)n2n1` (single isomer, unassigned) [Compound A101, (R or S)-3-((4-amino-7-(2-methoxy-4-(2-(methylamino)ethoxy)benzyl)imidazo[2,1-f][1,2,4]triazin-2-yl)oxy)hexan-1-ol], the results for the EC50 in experiment [1] and in experiment [2] were 8.6 nM and 0.78 nM, respectively.
As for `CCCC(CCO)Oc1nc(N)c2ncc(Cc3ccc(OCCNC)c(C)c3)n2n1` (single isomer, unassigned) [Compound A103, (R or S)-3-((4-amino-7-(3-methyl-4-(2-(methylamino)ethoxy)benzyl)imidazo[2,1-f][1,2,4]triazin-2-yl)oxy)hexan-1-ol], the EC50 in experiment [1] is 47 nM; in experiment [2], 2.4 nM.
Turning to `CCCC(CCO)Oc1nc(N)c2ncc(Cc3cccc(OCCNC)c3)n2n1` (single isomer, unassigned) [Compound A104, (R or S)-3-((4-amino-7-(3-(2-(methylamino)ethoxy)benzyl)imidazo[2,1-f][1,2,4]triazin-2-yl)oxy)hexan-1-ol], the figures for the EC50 in experiment [1] and in experiment [2] were 24 nM and 10 nM, respectively.
As for `CCCC(CCO)Oc1nc(N)c2ncc(Cc3ccc(OCCNC)c(F)c3)n2n1` (single isomer, unassigned) [Compound A105, (R or S)-3-((4-amino-7-(3-fluoro-4-(2-(methylamino)ethoxy)benzyl)imidazo[2,1-f][1,2,4]triazin-2-yl)oxy)hexan-1-ol], the EC50 in experiment [1] is 622 nM; in experiment [2] it was 61 nM.
As for `CCCCOc1nc(N)c2ncc(Cc3ccc4c(c3)CCN(C(C)C)C4)n2n1` [Compound A8, 2-butoxy-7-((2-isopropyl-1,2,3,4-tetrahydroisoquinolin-6-yl)methyl)imidazo[2,1-f][1,2,4]triazin-4-amine], the values for the EC50 in experiment [1] and in experiment [3] were 187 nM and 3030 nM, respectively.
Taken in the same sequence, the figures for `CCCCOc1nc(N)c2ncc(Cc3ccc(CN4CCNCC4)cc3)n2n1` [Compound A10, 2-butoxy-7-(4-(piperazin-1-ylmethyl)benzyl)imidazo[2,1-f][1,2,4]triazin-4-amine] were 572 nM and 1170 nM.
For the compound `CCCCOc1nc(N)c2ncc(Cc3ccc(CN4CCC(N)CC4)cc3)n2n1` [Compound A43, 7-(4-((4-aminopiperidin-1-yl)methyl)benzyl)-2-butoxyimidazo[2,1-f][1,2,4]triazin-4-amine], the values for the EC50 in experiment [1] and in experiment [3] were 255 nM and 822 nM, respectively.
For `CCCCOc1nc(N)c2ncc(Cc3ccc(OCCNC)nc3)n2n1` [Compound A58, 2-butoxy-7-((6-(2-(methylamino)ethoxy)pyridin-3-yl)methyl)imidazo[2,1-f][1,2,4]triazin-4-amine], in that order: 183 nM and 246 nM.
